Assay results from patent US20060052459A1, “Antifungal medicaments comprising arylamidine derivatives” (priority 2002, published 2006).
Where two headings read alike, the source gives them in different places.

Tests used:
[1] = tested on: Aspergillus fumigatus strain IP 864.64; assay: In vitro antifungal growth inhibition on microtitre plates (optical density 590 nm), compounds alone or as mixtures (Wadley method); assay type: cell-based; settings: Aspergillus fumigatus, IP864.64, 48 h, 48 hours at 30° C.; for inhibition at 0.026 µg/mL: dose 0.026 μg/ml; for inhibition at 0.098 µg/mL: dose 0.098 μg/ml; for inhibition at 0.39 µg/mL: dose 0.39 μg/ml; for inhibition at 1.562 µg/mL: dose 1.562 μg/ml; for inhibition at 6.25 µg/mL: dose 6.25 μg/ml; for inhibition at 25 µg/mL: dose 25 μg/ml; for inhibition at 100 µg/mL: dose 100 μg/ml
Protocol: (§1) The following fungi were used for this study: Candida albicans strains IP 48.72 (ATCC 10231) and Aspergillus fumigatus strain IP 864.64 obtained from the Collection Nationale de Cultures de Microorganismes (CNCM) of the Institut Pasteur. The strains are cultured on Yeast Extract-Peptone-Dextrose (YEPD) agar medium comprising 0.5% yeast extract, 0.5% bactopeptone, 2% glucose and 2% agar at 30° C. and in the dark.
(§2) All these compounds were prepared in a DMSO solution at a final concentration of 100 mg/ml. The stock solutions are stored at −20° C. up to the time of use.
(§3) The trials are carried out in RPMI 1640 medium with no sodium bicarbonate, but with L-glutamine buffered with 0.165 mol per litre of 3-[N-morpholino]propanesulphonic acid (MOPS), enriched (<>) or otherwise (<>) with 2% glucose. The pH of this medium is adjusted to 7.0. The medium is sterilized by filtration (0.22 μm) and stored at 4° C. up to the time of use.
(§4) All the antifungal tests are carried out on microtitre plates. The initial suspensions of spores are prepared in a sterile solution containing 0.85% NaCl, supplemented with Tween 80 at 0.01%. These initial suspensions are then diluted in the culture medium (RPMI 1640 enriched or otherwise with 2% glucose) to a final concentration of 10^4 spores per ml. The measurements of viability of each inoculum are verified by subcultures of a volume of 300 μl on YEPD agar medium.
(§5) The antifungal compounds are tested in a range of concentrations ranging from 0.026 to 100 μg of active ingredient/ml. These antifungal compounds are then diluted in RPMI 1640 medium enriched or otherwise with 2% glucose. A final DMSO concentration of 0.2% is used throughout the measurements. Each trial is carried out on a series of dilutions of antifungal compounds, in duplicate. The antifungal dilutions (0.1 ml) and the fungal inoculum (0.1 ml) are added to each of the wells of the microtitre plate. The plates are then read with a spectrophotometer (ELX 800UV Bio-Tek Instruments, Inc) at a wavelength of 590 nm. The plates are read immediately after (t=0) and after 48 hours' incubation at 30° C. and in the dark. The optical density values obtained are correlated with fungal growth between the times t=0 and t=48 hours. The optical density values are used to calculate the percentage inhibition of growth for each concentration of antifungals by comparison with the control. The values are then used to plot a dose-response curve and the EC50 value is determined for each fungus and each compound with the aid of the Grafit 5.0® software (Erithacus software Ltd).
(§6) The method which was used to measure the type of interaction existing between the antifungal compounds in the form of mixtures is the Wadley method.
(§7) In the Wadley approach, the dose-response curve for each of the compounds A and B, and for the mixture AB, is constructed. The EC50 is calculated for each compound taken individually and for the mixture. If a and b are the absolute quantities of the compounds A and B in the mixture (a=1, b=1, a+b=2 under our conditions), the expected effective concentration (EC50exp) may be calculated in the following manner: EC50exp=(a+b)/[a/EC50A)+b/(EC50B)
(§8) The Wadley approach may be used to estimate the type of interaction existing between the fungal compounds, regardless of their concentration. Its reliability is not dependent on the percentage inhibition. The type of interaction between two compounds is given by the level of interaction (LI) which corresponds to the ratio between the expected effective concentration (EC50exp) and that observed (EC50obs) of the mixture. The nature of the interaction obtained by the Wadley formula is presented in Table 1 (see U. Gisi, Synergistic interaction in fungicide mixtures, 1996. Phytopathology 86, 1273-1279) below.
(§9) The experimental conditions are the same as previously described.

[2] = tested on: Candida albicans strains IP 48.72 (ATCC 10231); assay: as above; assay type: cell-based; settings: Candida albicans, ATCC10231, 48 h, 48 hours at 30° C.; for inhibition at 0.026 µg/mL: dose 0.026 μg/ml; for inhibition at 0.098 µg/mL: dose 0.098 μg/ml; for inhibition at 0.39 µg/mL: dose 0.39 μg/ml; for inhibition at 1.562 µg/mL: dose 1.562 μg/ml; for inhibition at 6.25 µg/mL: dose 6.25 μg/ml; for inhibition at 25 µg/mL: dose 25 μg/ml; for inhibition at 100 µg/mL: dose 100 μg/ml; for EC50: read-out: EC50
Protocol: as §1, §2, §3, §4, §5, §6, §7, §8, §9

[3] = second study, strain IP 864.64, RPMI 1640 medium enriched with 2% glucose, read-out: EC50
[4] = minimal RPMI 1640 medium (MM), used alone
[5] = rich RPMI 1640 medium (RM), used alone
[6] = second study, strain IP 48.72, RPMI 1640 medium enriched with 2% glucose

| SMILES | inhibition at 0.026 µg/mL ([1]; minimal RPMI 1640 medium (MM)) [%] | inhibition at 0.026 µg/mL ([1]; rich RPMI 1640 medium (RM)) [%] | inhibition at 0.098 µg/mL ([1]; minimal RPMI 1640 medium (MM)) [%] | inhibition at 0.098 µg/mL ([1]; rich RPMI 1640 medium (RM)) [%] | inhibition at 0.39 µg/mL ([1]; minimal RPMI 1640 medium (MM)) [%] | inhibition at 0.39 µg/mL ([1]; rich RPMI 1640 medium (RM)) [%] | inhibition at 1.562 µg/mL ([1]; minimal RPMI 1640 medium (MM)) [%] | inhibition at 1.562 µg/mL ([1]; rich RPMI 1640 medium (RM)) [%] | inhibition at 6.25 µg/mL ([1]; minimal RPMI 1640 medium (MM)) [%] | inhibition at 6.25 µg/mL ([1]; rich RPMI 1640 medium (RM)) [%] | inhibition at 25 µg/mL ([1]; minimal RPMI 1640 medium (MM)) [%] | inhibition at 25 µg/mL ([1]; rich RPMI 1640 medium (RM)) [%] | inhibition at 100 µg/mL ([1]; minimal RPMI 1640 medium (MM)) [%] | inhibition at 100 µg/mL ([1]; rich RPMI 1640 medium (RM)) [%] | EC50 [1, 3] [µg/mL] | inhibition at 0.026 µg/mL ([2]; minimal RPMI 1640 medium (MM)) [%] | inhibition at 0.026 µg/mL ([2]; rich RPMI 1640 medium (RM)) [%] | inhibition at 0.098 µg/mL ([2]; minimal RPMI 1640 medium (MM)) [%] | inhibition at 0.098 µg/mL ([2]; rich RPMI 1640 medium (RM)) [%] | inhibition at 0.39 µg/mL ([2]; minimal RPMI 1640 medium (MM)) [%] | other results |
| --- | --- | --- | --- | --- | --- | --- | --- | --- | --- | --- | --- | --- | --- | --- | --- | --- | --- | --- | --- | --- | --- |
| OC(Cn1cncn1)(Cn1cncn1)c1ccc(F)cc1F [Compound II.1, fluconazole] | 4.8 | 11.2 | 4.8 | 20.7 | 5.8 | 25.9 | 8.7 | 27.6 | 7.7 | 28.4 | 23.1 | 48.3 | 41.4 | 46.6 | 125 | 2.1 | 11.1 | 9.7 | 32.5 | 38.5 | EC50 ([1]; minimal RPMI 1640 medium (MM), extrapolated with Grafit 5.0, read-out: EC50 (extrapolated from the dose-response curves)): 575 µg/mL; EC50 ([1]; rich RPMI 1640 medium (RM), extrapolated with Grafit 5.0, read-out: EC50 (extrapolated from the dose-response curves)): 125 µg/mL; inhibition at 0.39 µg/mL ([2]; rich RPMI 1640 medium (RM)): 72.6%; inhibition at 1.562 µg/mL ([2]; minimal RPMI 1640 medium (MM)): 64.7%; inhibition at 1.562 µg/mL ([2]; rich RPMI 1640 medium (RM)): 86.8%; inhibition at 6.25 µg/mL ([2]; minimal RPMI 1640 medium (MM)): 77.7%; inhibition at 6.25 µg/mL ([2]; rich RPMI 1640 medium (RM)): 94%; inhibition at 25 µg/mL ([2]; minimal RPMI 1640 medium (MM)): 81.9%; inhibition at 25 µg/mL ([2]; rich RPMI 1640 medium (RM)): 95.3%; inhibition at 100 µg/mL ([2]; minimal RPMI 1640 medium (MM)): 91.6%; inhibition at 100 µg/mL ([2]; rich RPMI 1640 medium (RM)): 36.1%; EC50 [2, 4]: 0.96 µg/mL; EC50 [2, 5]: 0.19 µg/mL; EC50 [2, 6]: 0.354 µg/mL |
| CCC(C)n1ncn(-c2ccc(N3CCN(c4ccc(OCC5COC(Cn6cncn6)(c6ccc(Cl)cc6Cl)O5)cc4)CC3)cc2)c1=O (centres unmarked) [Compound II.2, itraconazole] | 2.2 | 18.6 | 31.8 | 47.5 | 49.3 | 88.6 | 99.6 | 99.2 | 100 | 100 | 100 | 100 | 99 | 100 | 0.187 | 58.1 | 44.7 | 75.4 | 85.1 | 78.2 | EC50 ([1]; minimal RPMI 1640 medium (MM), used alone, read-out: EC50): 0.27 µg/mL; EC50 ([1]; rich RPMI 1640 medium (RM), used alone, read-out: EC50): 0.27 µg/mL; inhibition at 0.39 µg/mL ([2]; rich RPMI 1640 medium (RM)): 86.2%; inhibition at 1.562 µg/mL ([2]; minimal RPMI 1640 medium (MM)): 74.6%; inhibition at 1.562 µg/mL ([2]; rich RPMI 1640 medium (RM)): 85.1%; inhibition at 6.25 µg/mL ([2]; minimal RPMI 1640 medium (MM)): 78.6%; inhibition at 6.25 µg/mL ([2]; rich RPMI 1640 medium (RM)): 86.2%; inhibition at 25 µg/mL ([2]; minimal RPMI 1640 medium (MM)): 87.9%; inhibition at 25 µg/mL ([2]; rich RPMI 1640 medium (RM)): 95.2%; inhibition at 100 µg/mL ([2]; minimal RPMI 1640 medium (MM)): 95.2%; inhibition at 100 µg/mL ([2]; rich RPMI 1640 medium (RM)): 95.2%; EC50 [2, 4]: 0.022 µg/mL; EC50 [2, 5]: 0.017 µg/mL; EC50 [2, 6]: 0.082 µg/mL |
